GI50 and TGI data for eleven molecules are collected here from PubChem BioAssay (NCI).

Some test systems named below: ACHN renal; HT29 colon; K-562 leukemia; LOX IMVI melanoma; OVCAR-8 ovarian; SN12C renal; SNB-19 CNS; U251 CNS; UACC-62 melanoma; EKVX NSCLC.
Common to all, as to experiment: NCI tumour cell line growth inhibition, 48 h

Values joined by “and” are separate entries in the source; they are usually repeats but may differ in a detail not shown here. Equal entries are not always repeated.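 Assay format: 96-well plates, 48-hour exposure. Abbreviation: GI50, concentration required for 50% inhibition of growth. Definition used: TGI = concentration required for complete inhibition of growth.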

With `Cc1cc(C)c2c(n1)sc1c(N)ncnc12`, the GI50 was 14.2 µM with ACHN renal; 16.2 µM in the experiment with HT29 colon; more than 25 µM with K-562 leukemia; more than 25 µM in the experiment with LOX IMVI melanoma; more than 25 µM with OVCAR-8 ovarian; more than 22.3 µM in the experiment on SN12C renal. In addition, the GI50 in the experiment with SNB-19 CNS, with U251 CNS and with UACC-62 melanoma was more than 25 µM in each case. The TGI in the experiment with ACHN renal, in the experiment with HT29 colon, with K-562 leukemia, in the experiment with LOX IMVI melanoma, in the experiment with OVCAR-8 ovarian and in the experiment with SN12C renal was more than 25 µM throughout. Further, the TGI in the experiment on SNB-19 CNS, in the experiment on U251 CNS and in the experiment with UACC-62 melanoma was more than 25 µM throughout.
As to `O=C(/C=C/c1ccc(C(F)(F)F)cc1)Nc1ccc(C=C2c3ccccc3C(=O)c3ccccc32)cc1`, the GI50 in the experiment with ACHN renal was 19.4 µM; in the experiment on EKVX NSCLC, 3.37 µM; in the experiment on HT29 colon, 4.56 µM; in the experiment on LOX IMVI melanoma it was 14.2 µM; in the experiment on OVCAR-8 ovarian it was 15.4 µM; in the experiment with SN12C renal it was 26.7 µM. Also, the GI50 in the experiment with SNB-19 CNS is 8.61 µM; in the experiment on U251 CNS it was 5.69 µM; with UACC-62 melanoma it was 3.04 µM. Besides, the TGI in the experiment with ACHN renal, with EKVX NSCLC, with HT29 colon, in the experiment on LOX IMVI melanoma, in the experiment on OVCAR-8 ovarian and in the experiment on SN12C renal was more than 100 µM in each case. The TGI with SNB-19 CNS was more than 100 µM; with U251 CNS it was 60.7 µM; with UACC-62 melanoma, 63.7 µM.
For `CCN(Cc1cc(F)ccc1F)c1ccc(CO)c(Cl)c1`, the GI50 was 14.3 µM in the experiment with ACHN renal; 4.1 µM with HT29 colon; 0.617 µM in the experiment on K-562 leukemia; 14.6 µM in the experiment with LOX IMVI melanoma; 13 µM with OVCAR-8 ovarian; 11.8 µM with SN12C renal. The GI50 in the experiment with SNB-19 CNS is 20.2 µM; with U251 CNS it was 0.788 µM; in the experiment on UACC-62 melanoma, 0.0877 µM. Also, the TGI with ACHN renal was 29.6 µM; in the experiment with HT29 colon it was 17.7 µM; in the experiment on K-562 leukemia, 20.9 µM; in the experiment on LOX IMVI melanoma, 29.2 µM; with OVCAR-8 ovarian it was 36.2 µM; in the experiment with SN12C renal it was 25.6 µM. Besides, the results for the TGI in the experiment on SNB-19 CNS, in the experiment on U251 CNS and with UACC-62 melanoma were 80.3 µM, 17.1 µM and 0.602 µM, respectively.
As to `Cc1nc2ccc(Br)cc2c(=O)n1-c1ccc(NC2OCC(O)C(O)C2O)cc1` (stereo not given), the GI50 was 35.6 µM and > 100 µM in the experiment with ACHN renal; 20.7 µM and > 100 µM in the experiment on HT29 colon; 17.3 µM and > 100 µM in the experiment on K-562 leukemia; 15.3 µM and > 100 µM in the experiment on LOX IMVI melanoma; 43.5 µM and > 100 µM with OVCAR-8 ovarian; 30 µM and > 100 µM in the experiment with SN12C renal. In addition, in the experiment on UACC-62 melanoma, the GI50 was 30.7 µM and > 100 µM. In addition, the TGI with ACHN renal was more than 100 µM; in the experiment with EKVX NSCLC, more than 100 µM; in the experiment with HT29 colon, 48.7 µM and > 100 µM; in the experiment with K-562 leukemia, more than 100 µM; in the experiment on LOX IMVI melanoma it was 33.8 µM and > 100 µM; with OVCAR-8 ovarian it was more than 100 µM. For the same molecule, the TGI with SN12C renal, in the experiment on SNB-19 CNS and with UACC-62 melanoma was more than 100 µM each time.
As for `CNc1ccc2ncccc2c1[N+](=O)[O-]`, the TGI with ACHN renal, with EKVX NSCLC, with HT29 colon, in the experiment on K-562 leukemia, with LOX IMVI melanoma and in the experiment on OVCAR-8 ovarian was more than 100 µM throughout. Moreover, the TGI with SN12C renal, with SNB-19 CNS and with UACC-62 melanoma was more than 100 µM each time.
Take `Cc1cc(Nc2nc(C(=O)Nc3ccccc3)nc3ccccc23)n[nH]1`: the GI50 with ACHN renal was 2.87 µM; with HT29 colon it was 17.6 µM; in the experiment on K-562 leukemia, 7.94 µM; in the experiment on LOX IMVI melanoma, 4.47 µM; in the experiment on OVCAR-8 ovarian it was 14.5 µM; in the experiment on SN12C renal, 10.3 µM. The figures for the GI50 with SNB-19 CNS and in the experiment on U251 CNS were more than 25 µM and 5.71 µM, respectively. Moreover, the TGI with ACHN renal, with HT29 colon, with K-562 leukemia, with LOX IMVI melanoma, in the experiment on OVCAR-8 ovarian and with SN12C renal was more than 25 µM in each case. For the same molecule, the TGI with SNB-19 CNS and in the experiment on U251 CNS was more than 25 µM throughout.
As for `NNc1cnn(-c2ccccc2)c(=O)c1Cl`, the TGI in the experiment with ACHN renal, with HT29 colon, with K-562 leukemia, in the experiment with LOX IMVI melanoma, with OVCAR-8 ovarian and in the experiment on SN12C renal was more than 100 µM in each case. In addition, the TGI in the experiment with U251 CNS and in the experiment with UACC-62 melanoma was more than 100 µM throughout.
Turning to `COC(=O)C1C(=O)CC2CCCCC21` (stereo not given), the TGI in the experiment on ACHN renal, in the experiment with K-562 leukemia, in the experiment with SN12C renal, in the experiment with SNB-19 CNS, with U251 CNS and in the experiment with UACC-62 melanoma was more than 100 µM throughout.
On to `NCCCCC1NC(=O)C(CC(=O)O)NC(=O)CNC(=O)C(CCCN=C(N)N)NC(=O)C(N)CSSCC(C(=O)O)NC(=O)C(CC(=O)O)NC(=O)C2CCCN2C(=O)CNC1=O` (stereo not given), for which the GI50 in the experiment with ACHN renal, in the experiment with EKVX NSCLC, with HT29 colon, in the experiment with LOX IMVI melanoma, in the experiment with OVCAR-8 ovarian and in the experiment with SN12C renal was more than 100 µM throughout. Further, the GI50 with SNB-19 CNS, with U251 CNS and in the experiment with UACC-62 melanoma was more than 100 µM in each case. Moreover, the TGI in the experiment on ACHN renal, in the experiment on EKVX NSCLC, in the experiment with HT29 colon, with LOX IMVI melanoma, in the experiment with OVCAR-8 ovarian and with SN12C renal was more than 100 µM in each case. The TGI with SNB-19 CNS, with U251 CNS and in the experiment on UACC-62 melanoma was more than 100 µM in each case.
On to `Cc1ccc(Oc2ccccc2N)cc1`, for which the TGI with EKVX NSCLC, in the experiment with HT29 colon, with K-562 leukemia, with LOX IMVI melanoma, in the experiment on OVCAR-8 ovarian and with SN12C renal was more than 100 µM in each case. The TGI is more than 100 µM in the experiment with SNB-19 CNS, 22.1 µM in the experiment with U251 CNS and more than 100 µM with UACC-62 melanoma.
Take `O=c1cccccc1NCCCCCCCNc1cccccc1=O`: the TGI in the experiment on ACHN renal, in the experiment on EKVX NSCLC, in the experiment on HT29 colon, with K-562 leukemia, with LOX IMVI melanoma and in the experiment with OVCAR-8 ovarian was more than 100 µM in each case. Further, the TGI is more than 100 µM in the experiment on SN12C renal, more than 100 µM in the experiment on SNB-19 CNS and 84.5 µM with UACC-62 melanoma.
